Results taken from article PMC10837402, “Unnatural amino acid substitutions to improve in vivo stability and tumor uptake of ^68Ga-labeled GRPR-targeted TacBOMB2 derivatives for cancer imaging with positron emission tomography” (EJNMMI Radiopharmacy and Chemistry, 2024).
Several values for one entry are separate records, joined by “and”; a condition that tells them apart may be missing. Identical values can stand only once. Starred links: 1 amine or outer side, 2 acyl side, 3 side chain; linkers in the order of their positions; H or OH if unused. Non-standard residues stand in square brackets, D forms with d. Residues, ends and D or L forms follow the SMILES beside them. *: point of attachment. DOTA = O=C(O)CN1CCN(CC(=O)O)CCN(CC(=O)*)CCN(CC(=O)O)CC1; NMeH = CN[C@@H](Cc1c[nH]cn1)C(=O)O; X1 = O=C(CN1CCC(N[*:1])CC1)[*:2]; Tle = CC(C)(C)[C@H](N)C(=O)O; hSer = N[C@@H](CCO)C(=O)O; Thz = O=C(O)[C@@H]1CSCN1; Abu = CC[C@H](N)C(=O)O; Aib = CC(C)(N)C(=O)O

Assays:
[1] = target: T1, GRPR (Homo sapiens, UniProt P30550); assay: In vitro competition binding assay using PC-3 cells and [^125I-Tyr^4]Bombesin as the radioligand; settings: PC-3 cells, mean ± SD, n = 3, read-out: GRPR binding affinity (Ki)
T1 construct: generated using GRPR-expressing PC-3 cells; endogenous in cells; host or cells: PC-3 cells
T1 sequence (P30550 whole entry): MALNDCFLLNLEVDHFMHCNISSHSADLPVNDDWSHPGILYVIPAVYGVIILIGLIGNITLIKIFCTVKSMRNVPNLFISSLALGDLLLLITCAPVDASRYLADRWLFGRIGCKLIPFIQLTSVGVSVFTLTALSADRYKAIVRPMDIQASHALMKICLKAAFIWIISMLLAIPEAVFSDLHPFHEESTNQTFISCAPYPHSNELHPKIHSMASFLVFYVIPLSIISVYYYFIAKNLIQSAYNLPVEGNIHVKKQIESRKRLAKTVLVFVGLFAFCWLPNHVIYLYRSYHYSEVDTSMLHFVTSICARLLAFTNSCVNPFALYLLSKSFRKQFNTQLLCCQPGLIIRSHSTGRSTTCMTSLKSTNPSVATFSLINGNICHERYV
Protocol: [2022], [2023]; Bratanovic et al. [2022]). The assays were conducted in triplicate with varied concentrations (10 μM to 1 pM) of tested ligands. […] The growth medium was replaced with 400 μL of reaction medium (RPMI 1640 containing 2 mg/mL BSA, and 20 mM HEPES), then the plates were incubated at 37 °C for 60 min. […] Data were analyzed using nonlinear regression with GraphPad (San Diego, CA, USA) Prism 8 software.

[2] = target: T1, GRPR; assay: Fluorometric calcium release assay in PC-3 cells; assay type: cell-based; settings: 50 nM ligand
Protocol: The growth medium was removed and replaced with a loading buffer containing a calcium-sensitive dye (FLIPR Calcium 6 assay kit from Molecular Devices, San Jose, CA, USA). After incubated at 37 °C for 30 min, the plates were placed in a FlexStation 3 microplate reader (Molecular Devices). Tested ligands (50 nM) or DPBS (negative control) were added to the cells and the fluorescent signals were acquired for 2 min. Agonistic/antagonistic properties of the tested ligands were determined based on the relative fluorescent unit (RFU = max – min) of their generated fluorescent signals.

Row | Ki [1] | Ca^2+ efflux (relative fluorescence units, RFU = max – min) [2] | Compound
1 | > 150 nM |  | CC(C)C[C@H](NC(=O)[C@H](Cc1c[nH]cn1)NC(=O)CNC(=O)[C@@H](NC(=O)[C@H](C)NC(=O)[C@H](Cc1c[nH]c2ncccc12)NC(=O)[C@H](CCC(N)=O)NC(=O)[C@H](N)Cc1ccccc1)C(C)C)C(=O)N1CSC[C@H]1C(N)=O [LW02013, D-Phe-Gln-7-Aza-Trp-Ala-Val-Gly-His-Leu-Thz-NH2]
2 |  | 38.2 ± 7.20 RFUs | [D-Phe^6,Leu-NHEt^13,des-Met^14]Bombesin(6–14) [reference compound]
3 | > 150 nM and 406 nM |  | CC[C@H](NC(=O)[C@H](C)NC(=O)[C@H](Cc1c[nH]c2ccccc12)NC(=O)[C@H](CCC(N)=O)NC(=O)[C@H](N)Cc1ccccc1)C(=O)NCC(=O)N[C@@H](Cc1c[nH]cn1)C(=O)N[C@@H](CC(C)C)C(=O)N1CSC[C@H]1C(N)=O [LW01083, D-Phe-Gln-Trp-Ala-2-Abu-Gly-His-Leu-Thz-NH2]
4 | > 150 nM and 2030 nM |  | CC(C)C[C@H](NC(=O)[C@H](Cc1c[nH]cn1)NC(=O)CNC(=O)[C@@H](NC(=O)[C@H](C)NC(=O)[C@H](Cc1c[nH]c2ccc(O)cc12)NC(=O)[C@H](CCC(N)=O)NC(=O)[C@H](N)Cc1ccccc1)C(C)C)C(=O)N1CSC[C@H]1C(N)=O [LW01173, D-Phe-Gln-5-OH-Trp-Ala-Val-Gly-His-Leu-Thz-NH2]
5 |  | 559 ± 96.2 RFUs | CC(C)C[C@H](NC(=O)[C@H](Cc1c[nH]cn1)N(C)C(=O)CNC(=O)[C@@H](NC(=O)[C@H](C)NC(=O)[C@H](Cc1c[nH]c2ccccc12)NC(=O)[C@H](Cc1c[nH]cn1)NC(=O)[C@@H](Cc1ccccc1)NC(=O)CN1CCC(NC(=O)CN2CCN(CC(=O)O)CCN(CC(=O)O)CCN(CC(=O)O)CC2)CC1)C(C)(C)C)C(=O)N1CSC[C@H]1C(N)=O [Ga-LW01142, Ga-DOTA-Pip-D-Phe-His-Trp-Ala-Tle-Gly-NMe-His-Leu-Thz-NH2] ({DOTA}-[X1][dF]HWA[Tle]G[NMeH]L[Thz]-NH2)
6 |  | 549 ± 46.7 RFUs | CC(C)C[C@H](NC(=O)[C@H](Cc1c[nH]cn1)NC(=O)CNC(=O)[C@@H](NC(=O)[C@H](C)NC(=O)[C@H](Cc1c[nH]c2ccccc12)NC(=O)[C@H](CCC(N)=O)NC(=O)[C@@H](Cc1ccccc1)NC(=O)CN1CCC(NC(=O)CN2CCN(CC(=O)O)CCN(CC(=O)O)CCN(CC(=O)O)CC2)CC1)C(C)(C)C)C(=O)N1CSC[C@H]1C(N)=O [Ga-LW01108, Ga-DOTA-Pip-D-Phe-Gln-Trp-Ala-Tle-Gly-His-Leu-Thz-NH2]
7 | > 150 nM and 2410 nM |  | CC(C)C[C@H](NC(=O)[C@H](Cc1c[nH]cn1)NC(=O)CNC(=O)[C@@H](NC(=O)C(C)(C)NC(=O)[C@H](Cc1c[nH]c2ccccc12)NC(=O)[C@H](CCC(N)=O)NC(=O)[C@H](N)Cc1ccccc1)C(C)C)C(=O)N1CSC[C@H]1C(N)=O [LW01075, D-Phe-Gln-Trp-Aib-Val-Gly-His-Leu-Thz-NH2] (H-[dF]QW[Aib]VGHL[Thz]-NH2)
8 | 35.7 ± 27.4 nM |  | CC(C)C[C@H](NC(=O)[C@H](Cc1c[nH]cn1)NC(=O)CNC(=O)[C@@H](NC(=O)[C@H](C)NC(=O)[C@H](Cc1c[nH]c2ccccc12)NC(=O)[C@H](CCC(N)=O)NC(=O)[C@H](N)Cc1ccccc1)C1CCC1)C(=O)N1CSC[C@H]1C(N)=O [LW02019, D-Phe-Gln-Trp-Ala-cyclobutaneacetic acid-Gly-His-Leu-Thz-NH2]
9 | 27.2 ± 8.62 nM |  | CC[C@H](NC(=O)[C@H](Cc1c[nH]c2ccccc12)NC(=O)[C@H](CCC(N)=O)NC(=O)[C@H](N)Cc1ccccc1)C(=O)N[C@H](C(=O)NCC(=O)N[C@@H](Cc1c[nH]cn1)C(=O)N[C@@H](CC(C)C)C(=O)N1CSC[C@H]1C(N)=O)C(C)C [LW01078, D-Phe-Gln-Trp-2-Abu-Val-Gly-His-Leu-Thz-NH2] (H-[dF]QW[Abu]VGHL[Thz]-NH2)
10 | > 10000 nM |  | CC(C)=C(NC(=O)[C@H](C)NC(=O)[C@H](Cc1c[nH]c2ccccc12)NC(=O)[C@H](CCC(N)=O)NC(=O)[C@H](N)Cc1ccccc1)C(=O)NCC(=O)N[C@@H](Cc1c[nH]cn1)C(=O)N[C@@H](CC(C)C)C(=O)N1CSC[C@H]1C(N)=O [LW02011, D-Phe-Gln-Trp-Ala-2,3-dehydro-Val-Gly-His-Leu-Thz-NH2]
11 |  | 450 ± 136 RFUs | bombesin [reference compound]
12 |  | 197 ± 50.3 RFUs | Cc1[nH]c2ccccc2c1C[C@H](NC(=O)[C@H](CCC(N)=O)NC(=O)[C@@H](Cc1ccccc1)NC(=O)CN1CCC(NC(=O)CN2CCN(CC(=O)O)CCN(CC(=O)O)CCN(CC(=O)O)CC2)CC1)C(=O)N[C@@H](C)C(=O)N[C@H](C(=O)NCC(=O)N[C@@H](Cc1c[nH]cn1)C(=O)N[C@@H](CC(C)C)C(=O)N1CSC[C@H]1C(N)=O)C(C)C [Ga-LW02025, Ga-DOTA-Pip-D-Phe-Gln-2-Me-Trp-Ala-Val-Gly-His-Leu-Thz-NH2]
13 | > 150 nM and 829 nM |  | CC(C)C[C@H](NC(=O)[C@H](Cc1c[nH]cn1)NC(=O)CNC(=O)[C@@H](NC(=O)[C@H](C)NC(=O)[C@H](Cc1c[nH]c2cc(Cl)ccc12)NC(=O)[C@H](CCC(N)=O)NC(=O)[C@H](N)Cc1ccccc1)C(C)C)C(=O)N1CSC[C@H]1C(N)=O [LW01137, D-Phe-Gln-6-Cl-Trp-Ala-Val-Gly-His-Leu-Thz-NH2]
14 | > 150 nM and 196 nM |  | CC(C)C[C@H](NC(=O)[C@H](Cc1c[nH]cn1)NC(=O)CNC(=O)[C@@H](NC(=O)[C@H](C)NC(=O)[C@H](Cc1c[nH]c2ccccc12)NC(=O)[C@H](CCO)NC(=O)[C@H](N)Cc1ccccc1)C(C)C)C(=O)N1CSC[C@H]1C(N)=O [LW02030, D-Phe-Hse-Trp-Ala-Val-Gly-His-Leu-Thz-NH2] (H-[dF][hSer]WAVGHL[Thz]-NH2)
15 | > 150 nM and 1450 nM |  | Cc1ccc2c(C[C@H](NC(=O)[C@H](CCC(N)=O)NC(=O)[C@H](N)Cc3ccccc3)C(=O)N[C@@H](C)C(=O)N[C@H](C(=O)NCC(=O)N[C@@H](Cc3c[nH]cn3)C(=O)N[C@@H](CC(C)C)C(=O)N3CSC[C@H]3C(N)=O)C(C)C)c[nH]c2c1 [LW01171, D-Phe-Gln-6-Me-Trp-Ala-Val-Gly-His-Leu-Thz-NH2]
16 | > 10000 nM |  | CC(C)C[C@H](NC(=O)[C@H](Cc1c[nH]cn1)NC(=O)CNC(=O)[C@@H](NC(=O)[C@H](C)NC(=O)[C@H]1Cc2c([nH]c3ccccc23)CN1C(=O)[C@H](CCC(N)=O)NC(=O)[C@H](N)Cc1ccccc1)C(C)C)C(=O)N1CSC[C@H]1C(N)=O [LW01191, D-Phe-Gln-D-Tpi-Ala-Val-Gly-His-Leu-Thz-NH2]

Row | Compound | Ki [1] | Ca^2+ efflux (relative fluorescence units, RFU = max – min) [2]
17 | Cc1ccc2[nH]cc(C[C@H](NC(=O)[C@H](CCC(N)=O)NC(=O)[C@@H](Cc3ccccc3)NC(=O)CN3CCC(NC(=O)CN4CCN(CC(=O)O)CCN(CC(=O)O)CCN(CC(=O)O)CC4)CC3)C(=O)N[C@@H](C)C(=O)N[C@H](C(=O)NCC(=O)N[C@@H](Cc3c[nH]cn3)C(=O)N[C@@H](CC(C)C)C(=O)N3CSC[C@H]3C(N)=O)C(C)C)c2c1 [Ga-LW02023, Ga-DOTA-Pip-D-Phe-Gln-5-Me-Trp-Ala-Val-Gly-His-Leu-Thz-NH2] |  | 312 ± 45.9 RFUs
18 | Ga-DOTA-Pip-D-Phe-Gln-Trp-Ala-Val-Gly-NMe-His-Leu-Thz-NH2 [Ga-LW01107] |  | 1,004 ± 32.0 RFUs
19 | Nc1ncnc2c1ncn2[C@@H]1O[C@H](COP(=O)(O)OP(=O)(O)OP(=O)(O)O)[C@@H](O)[C@H]1O [ATP, reference compound] |  | 253 ± 46.5 RFUs
